No end group written: not given here.

We go through one sequence from paper PMC9992173, “Mapping of the extracellular RBP4 ligand binding domain on the RBPR2 receptor for Vitamin A transport” (Frontiers in Cell and Developmental Biology, 2023).

This test has as its target T1, mouse RBP4 (Mus musculus, UniProt Q00724).
T1 construct: 6XHis; made in house; host or cells: E. coli
Kind of test: Surface plasmon resonance (SPR) binding of SYL-motif peptides to immobilized RBP4. The settings on record: SPR affinity fit, Figure 6B; repeated in the discussion as calculated binding affinity; read-out: Best-fit values Kd. The method, then: Purified RBP4 protein with >90% purity and 0.56 mg/mL concentration was immobilized on Biacore Sensor Chip CM5 (ITDD Biacore S200 Surface Plasmon Resonance instrument at University of Minnesota). The two-flow cell surface activated for using one as blank and other as test. Using Amine Coupling Kit (Cat. No. BR100050; Cytiva, Marlborough, MA, US) 1-ethyl-3-(3-dimethylaminopropyl) carbodiimide hydrochloride (EDC), N-hydroxysuccinimide (NHS), after surface activation, the purified RBP4 with immobilization buffer 10 mM Sodium acetate, pH 5.0, was immobilized with target of 1,200 Response Unit (RU) for achieving Rmax of 30RU in kinetic study. The reaction stopped and washed with Ethanolamine. The system was re-primed with running buffer PBST (phosphate-buffered saline solution with a 0.05% Tween20 detergent solution). The kinetic assay performed on the two flow cells, the blank was used as reference cell and the active cell with RBP4 was used for the binding study. […] The program was run and non-specific binding on the reference cell subtracted bulk refractive index from the active sensorgram and analyzed for the association, dissociation and stabilization of the reads. […]

Regarding “HVRDKLDMFEDKLESYLTHMNETGTLTPIILQVKELISVTKG [mouse RBPR2]”, the Kd – broadly, the constant that tells how readily two partners part at equilibrium – was 25.4 µM.
